Results published in paper PMC8156151 (The European Respiratory Journal, 2021).
Read-outs that look alike come from different tables or passages of the source.

Columns and labels:
Type in all cases: in vivo, human
[1] = tested on: CCL2 (MCP-1); test: Plasma biomarker CCL2; settings: for CCL2 (MCP-1) raw data, Mean (SD) / CCL2 (MCP-1) least square means % baseline±SEM: IPF patients
Method: (§1) All patients, investigators, sites and study sponsor personnel were blinded to the study group assignments throughout the study. Patients underwent study-specific assessments on days 2, 3, 7, 14 and 15, and a post-study assessment was carried out 26–30 days after the last day of the study period. Assessments included vital signs (supine blood pressure, pulse, oxygen saturation, oral temperature and respiratory rate), spirometry, 12-lead ECG, physical examination, laboratory safety screen (haematology, biochemistry, urinalysis and urinary drugs of abuse screen) and blood sampling for PK measurements. All adverse events and concomitant medications were recorded from the time of the screening visit until the post-study follow-up visit. BAL was performed at day −1 (24 h before the first dose) and at day 14 (2 h after the last dose). The BAL procedure was performed as per international guidelines. Briefly, 240 mL of 0.9% saline at room temperature was instilled in 40 mL aliquots into the right middle lobe and aspirated by suction after each aliquot.
(§2) BAL cells were separated from fluid by centrifugation, and cells were collected, stained with antibodies (supplementary material) and then fixed before analysis using a LSR Fortessa flow cytometer (Becton Dickinson, Franklin Lakes, NJ, USA). Data were analysed using FlowJo software (Tree Star, Ashland, OR, USA). Macrophages were identified as having high side scatter properties and human leukocyte antigen-DR positivity. Gal-3 expression (mean fluorescence intensity) was determined from the macrophage gate (supplementary figures S1 and S2). […] Samples were analysed by magnetic Luminex assay (R&D Systems, Minneapolis, MN, USA) or ELISA.
(§3) For part 2 of the study, placebos were combined from the three dose-specific cohorts into a pooled control group (n=9). For alveolar macrophage Gal-3 expression and the plasma biomarkers, ANCOVA was performed for percentage of baseline ((day 14/day 1)×100). The ANCOVA model included effects for treatment group and baseline (day 1) value. […] An additional analysis including dose as a continuous covariate was also performed. The Pearson correlation coefficient (r) and associated p-value were calculated for percentage of baseline and day 14 values between plasma biomarkers and alveolar macrophage Gal-3 expression. […] The analysis is exploratory and there was no pre-planned adjustment for multiple testing; the study was not powered for this. Alveolar macrophage Gal-3 expression was considered the primary exploratory analysis with the pre-selected biomarkers secondary. A Bonferroni correction for multiple testing of the secondary end-points comparing the 10 mg group with placebo gives a critical value of 0.0063. Data are presented as the difference in least square means with 95% confidence interval and p-value unless otherwise stated. All analyses were performed using SAS version 9.4 (SAS Institute, Cary, NC, USA). […]

[2] = tested on: patients with IPF; test: Safety and tolerability (TEAEs), part 2, once-daily inhaled dose for 14 days
Description: Following completion of dosing for the final subject in each dosing cohort, an interim dose review meeting was held with a safety committee consisting of the principal investigator, medical monitor, pharmacokineticist and statistician to review the safety, tolerability and PK data (study design schematic shown in figure 1). The study statistician and pharmacokineticist were unblinded at the end of each cohort in order to conduct the analyses required for dose review decisions. The primary end-point was the safety and tolerability of single or multiple doses of TD139 in healthy subjects or IPF patients, respectively.

[3] = tested on: Gal-3; settings: for Galectin-3 raw data, Mean (SD) / Gal-3 least square means % baseline±SEM: IPF patients; for Galectin-3 raw data, Mean (SD): Day 14; for Gal-3 least square means % baseline±SEM: day 14
Method: as §1, with “BAL was performed at day −1 (24 h before the first dose) and at day 14 (2 h after the last dose).” left out
as §2
as §3, with “Data are presented as the difference in least square means with 95% confidence interval and p-value unless otherwise stated.” left out
Plasma pharmacodynamic biomarkers
The following pre-specified biomarkers were evaluated in samples of plasma based on the basis

[4] = IPF patients, inhaled 0.3 mg once daily 14 days
[5] = IPF patients, inhaled 3 mg once daily 14 days
[6] = IPF patients, inhaled 10 mg once daily 14 days

SMILES: OC[C@H]1O[C@@H](S[C@@H]2O[C@H](CO)[C@H](O)[C@H](n3cc(-c4cccc(F)c4)nn3)[C@H]2O)[C@H](O)[C@@H](n2cc(-c3cccc(F)c3)nn2)[C@H]1O [TD139]
- CCL2 (MCP-1) difference in least square means % baseline (95% CI) ([1]; 10 mg vs placebo, ANCOVA): −71.7 (−187.1–43.7) % baseline
- CCL2 (MCP-1) raw data, Mean (SD) ([1]; Day 14, 0.3 mg): 133.8 (15.06) pg/ml
- CCL2 (MCP-1) raw data, Mean (SD) ([1]; Day 14, 3 mg): 137.6 (63.21) pg/ml
- CCL2 (MCP-1) raw data, Mean (SD) ([1]; Day 14, 10 mg): 270.3 (348.45) pg/ml
- CCL2 (MCP-1) least square means % baseline±SEM ([1]; day 14, 0.3 mg once daily): 126.7±39.3 % baseline
- CCL2 (MCP-1) least square means % baseline±SEM ([1]; day 14, 3 mg once daily): 93.7±38.7 % baseline
- CCL2 (MCP-1) least square means % baseline±SEM ([1]; day 14, 10 mg once daily): 89.4±43.5 % baseline
- Subjects reporting ≥1 TEAE: Serious TEAE [2, 4]: 0 n (%)
- Subjects reporting ≥1 TEAE: TEAE [2, 4]: 4 (80.0) n (%)
- Subjects reporting ≥1 TEAE: TEAE leading to withdrawal [2, 4]: 0 n (%)
- Subjects with TEAE by relationship to study IMP: Almost definite [2, 4]: 0 n (%)
- Subjects with TEAE by relationship to study IMP: Possible [2, 4]: 1 (20.0) n (%)
- Subjects with TEAE by relationship to study IMP: Probable [2, 4]: 0 n (%)
- Subjects with TEAE by relationship to study IMP: Unlikely [2, 4]: 1 (20.0) n (%)
- Subjects with TEAE by relationship to study IMP: Unrelated [2, 4]: 2 (40.0) n (%)
- Subjects with TEAE by severity: Mild [2, 4]: 2 (40.0) n (%)
- Subjects with TEAE by severity: Moderate [2, 4]: 2 (40.0) n (%)
- Subjects with TEAE by severity: Severe [2, 4]: 0 n (%)
- TEAEs [2, 4]: 9 n
- Subjects reporting ≥1 TEAE: Serious TEAE [2, 5]: 0 n (%)
- Subjects reporting ≥1 TEAE: TEAE [2, 5]: 5 (100.0) n (%)
- Subjects reporting ≥1 TEAE: TEAE leading to withdrawal [2, 5]: 0 n (%)
- Subjects with TEAE by relationship to study IMP: Almost definite [2, 5]: 0 n (%)
- Subjects with TEAE by relationship to study IMP: Possible [2, 5]: 1 (20.0) n (%)
- Subjects with TEAE by relationship to study IMP: Probable [2, 5]: 0 n (%)
- Subjects with TEAE by relationship to study IMP: Unlikely [2, 5]: 1 (20.0) n (%)
- Subjects with TEAE by relationship to study IMP: Unrelated [2, 5]: 3 (60.0) n (%)
- Subjects with TEAE by severity: Mild [2, 5]: 4 (80.0) n (%)
- Subjects with TEAE by severity: Moderate [2, 5]: 1 (20.0) n (%)
- Subjects with TEAE by severity: Severe [2, 5]: 0 n (%)
- TEAEs [2, 5]: 10 n
- Subjects reporting ≥1 TEAE: Serious TEAE [2, 6]: 1 (20.0) n (%)
- Subjects reporting ≥1 TEAE: TEAE [2, 6]: 4 (80.0) n (%)
- Subjects reporting ≥1 TEAE: TEAE leading to withdrawal [2, 6]: 0 n (%)
- Subjects with TEAE by relationship to study IMP: Almost definite [2, 6]: 0 n (%)
- Subjects with TEAE by relationship to study IMP: Possible [2, 6]: 0 n (%)
- Subjects with TEAE by relationship to study IMP: Probable [2, 6]: 0 n (%)
- Subjects with TEAE by relationship to study IMP: Unlikely [2, 6]: 2 (40.0) n (%)
- Subjects with TEAE by relationship to study IMP: Unrelated [2, 6]: 2 (40.0) n (%)
- Subjects with TEAE by severity: Mild [2, 6]: 1 (20.0) n (%)
- Subjects with TEAE by severity: Moderate [2, 6]: 2 (40.0) n (%)
- Subjects with TEAE by severity: Severe [2, 6]: 1 (20.0) n (%)
- TEAEs [2, 6]: 13 n
- safety and tolerability ([2]; IPF patients, multiple inhaled doses up to 10 mg): safe and well tolerated
- TEAE profile, biochemistry, haematology, vital signs or 12-lead ECG data ([2]; part 2, IPF patients): no treatment- or dose-related trends observed
- patients with a TEAE considered possibly related to the study drug ([2]; part 2, diarrhoea and dysgeusia/oropharyngeal pain): two
- circulating Gal-3 plasma concentrations (percentage of baseline), difference versus placebo ([3]; 10 mg dose group): −67.63%
- Galectin-3 raw data, Mean (SD) ([3]; plasma, 0.3 mg): 13290.4 (4951.24) pg/ml
- Galectin-3 raw data, Mean (SD) ([3]; plasma, 3 mg): 9298.5 (3499.54) pg/ml
- Galectin-3 raw data, Mean (SD) ([3]; plasma, 10 mg): 4486.3 (697.25) pg/ml
- Gal-3 least square means % baseline±SEM ([3]; plasma, 0.3 mg once daily): 113.9±21.2 % baseline
- Gal-3 least square means % baseline±SEM ([3]; plasma, 3 mg once daily): 119.5±21.3 % baseline
- Gal-3 least square means % baseline±SEM ([3]; plasma, 10 mg once daily): 53.4±23.5 % baseline
- Gal-3 difference in least square means % baseline (95% CI) ([3]; plasma, 10 mg vs placebo, ANCOVA): −67.6 (−126.9– −8.4) % baseline
